Read-outs that look alike come from different tables or passages of the source.
Columns and labels:
[1] = system: MDA-MB-435 breast cancer cell line; assay: NCI in vitro screen, breast cancer MDA-MB-435; type: cell-based; details: Homo sapiens, read-out: Cytotoxicity log GI50 (converted)
[2] = system: PC-3 prostate cancer cell line; assay: NCI in vitro screen, prostate cancer PC-3; type: cell-based; details: Homo sapiens, read-out: Cytotoxicity log GI50 (converted)
Description: (§1) Compounds 41-51 and 53-68 were submitted to NCI and assayed in the NCI's in vitro disease-oriented antitumor screen, which involves determination of a test compound's effects on the growth of approximately 60 human tumor cell lines. See, M. R. Boyd, et al. In Cancer: Principles and Practice of Oncology Updates; De Vita, V. T., Hellman, S., Rosenberg, S. A., Eds; J. B. Lippincoft: Philadelphia, pp 1-12 (1989); and A. Monks, et al. J. Natl. Cancer Inst. 83:757 (1991). These lines include leukemia, non-small cell lung, colon, central nervous system (CNS), melanoma, ovarian, renal, prostate, and breast cancers.
(§2) Compounds 29'-51' were submitted to NCI and assayed in the NCI's in vitro disease-oriented antitumor screen, using the techniques described in Example 5. This assay involves determinations of a test agent's effect on growth parameters against a panel of approximately 60 human tumor cell lines, derived largely from solid tumors, including non-small cell lung, colon, central nervous system, renal, ovarian, prostate, and breast cancers, plus a few leukemia cell lines. The cytotoxic effects of each compound are obtained as GI50 or […] values, which represent the molar drug concentrations required to cause half growth inhibition and total growth inhibition, respectively. The results are expressed for each cell line as average log GI50 values in Table 4, as log GI50 values in Table 5, and as log TGI values and average log TGI values in Table 6.

[3] = system: NCI-H460 non-small cell lung cancer cell line; assay: NCI in vitro screen, non-small cell lung cancer NCI-H460; type: cell-based; details: Homo sapiens, read-out: Cytotoxicity log GI50 (converted)
tubulin = assay: Tubulin polymerization assay; type: biochemical, bovine
Experimental: Electrophoretically homogeneous bovine brain tubulin was purified as described in E. Hamel, et al. Biochemistry 23:4173 (1984).
The tubulin polymerization assay was performed as described in S. Kuo, et al. J. Med. Chem. 36:1146 (1993); L. Li, et al. J. Med. Chem. 37:1126 (1994); and L. Li J. Med. Chem. 37:3400 (1994). In brief, tubulin at 1.2 mg/ml (12 μM) was preincubated for 15 min at 26° C. in a 0.24-ml volume of 0.8 M monosodium glutamate (pH 6.6 with NaOH in a 2 M stock solution) with varying drug concentrations. The drug stock solutions were in DMSO, and the final solvent concentration was 4 % (v/v). All concentrations are in terms of the final reaction volume (0.25 ml). The reaction mixtures were chilled on ice, and 10 μl of 10 mM GTP was added to each reaction mixture. Samples were transferred to cuvettes held at 0° C. by an electronic temperature controller in Gilford spectrophotometers. Baselines were established at 350 nm, and polymerization initiated by a temperature jump to 26° C. The jump took about 50 sec to complete. After 20 min, turbidity readings were recorded, and the temperature controller was set to 0C. When depolymerization was complete, turbidity readings were again recorded. […] IC50 values were obtained graphically from inhibition of polymerization by different drug concentrations.
Electrophoretically, homogeneous bovine brain tubulin was purified as described in Example 6.
The tubulin polymerization assay was performed as described in Example 6.

[4] = system: HCT-116 colon cancer cell line; assay: NCI in vitro screen, colon cancer HCT-116; type: cell-based; details: Homo sapiens; HCT-1.16 (head); HCT-116 (footnote); read-out: Cytotoxicity log GI50 (converted)
[5] = system: NCI's 60 human tumor cell line; assay: NCI 60 human tumor cell line in vitro screen (average / whole panel); type: cell-based; details: calculated from all cell lines tested, molar concentrations, read-out: average log GI50 (converted)
[6] = system: SK-MEL-5 melanoma cell line; assay: NCI in vitro screen, melanoma SK-MEL-5; type: cell-based; details: Homo sapiens, read-out: Cytotoxicity log GI50 (converted)
Description: as §1, §2

[7] = system: 786-0 renal cancer cell line; assay: NCI in vitro screen, renal cancer 786-0; type: cell-based; details: Homo sapiens, read-out: Cytotoxicity log GI50 (converted)
Description: as §1, §2

[8] = system: SF-295 CNS cancer cell line; assay: NCI in vitro screen, CNS cancer SF-295; type: cell-based; details: Homo sapiens, read-out: Cytotoxicity log GI50 (converted)
[9] = system: OVCAR-3 ovarian cancer cell line; assay: NCI in vitro screen, ovarian cancer OVCAR-3; type: cell-based; details: Homo sapiens, read-out: Cytotoxicity log GI50 (converted)
[10] = system: HL-60(TB) leukemia cell line; assay: cells; type: cell-based; details: Homo sapiens; HL-60(TB); read-out: Cytotoxicity log GI50 (converted)
[11] = system: U-251 CNS cancer cell line; assay: NCI in vitro screen, CNS cancer U-251; type: cell-based; details: Homo sapiens, read-out: Cytotoxicity log GI50 (converted)
[12] = system: MDA-N breast cancer cell line; assay: NCI in vitro screen, breast cancer MDA-N; type: cell-based; details: Homo sapiens, read-out: Cytotoxicity log GI50 (converted)
Description: as §1, §2

[13] = Tables 1 and 4, read-out: ITP HC50 ± SD (Inhibition of Tubulin Polymerization)
[14] = read-out: IC50, inhibition of tubulin polymerization

SMILES | GI50 [1] [nM] | GI50 [2] [nM] | GI50 [3] [nM] | IC50 (tubulin; [13]) [nM] | IC50 (tubulin; [14]) [nM] | GI50 [4] [nM] | GI50 [5] [nM] | GI50 [6] [nM] | GI50 [7] [nM] | GI50 [8] [nM] | GI50 [9] [nM] | GI50 [10] [nM] | GI50 [11] [nM] | GI50 [12] [nM]
Cc1ccc2c(n1)N=C(c1ccc(Cl)cc1)CC2=O [Compound 65, 2-(4'-Chlorophenyl)-7-methyl-1,8-naphthyridin-4-one] | 912 | 1660 | 4470 | 11000 ± 700 | 11000 to 32000 | 3310 | 4900 | 4370 | 6310 | 4570 | 2570 | 2950 | 4790 | 1000
Cc1ccc(C2=Nc3nc(C)ccc3C(=O)C2)cc1 [Compound 69, 2-(4'-Methylphenyl)-7-methyl-1,8-naphthyridin-4-one] | – | – | – | 4900 ± 200 | – | – | – | – | – | – | – | – | – | –
Cc1cc(C)c2c(n1)N=C(c1ccc(F)cc1)CC2=O [Compound 60, 2-(4'-Fluorophenyl)-5,7-dimethyl-1,8-naphthyridin-4-one] | 18600 | 30200 | 51300 | > 40000 | > 40000 | 50100 | 40700 | 26300 | 79400 | 50100 | 43700 | 15500 | 95500 | 25100
Cc1ccc(C2=Nc3nc(C)cc(C)c3C(=O)C2)cc1 [Compound 70, 2-(4'-Methylphenyl)-5,7-dimethyl-1,8-naphthyridin-4-one] | – | – | – | 9800 ± 2000 | – | – | – | – | – | – | – | – | – | –
Cc1ccc(C2=Nc3nccc(C)c3C(=O)C2)cc1 [Compound 67, 2-(4'-Methylphenyl)-5-methyl-1,8-naphthyridin-4-one] | – | – | – | 2900 ± 700 | – | – | – | – | – | – | – | – | – | –
COc1ccc(-c2cc(=O)c3c(C)ccnc3[nH]2)cc1 [Compound 52] | 2400 | 18200 | 6170 | – | – | 6460 | 12900 | 3890 | 25100 | 19500 | 13800 | 4370 | 6310 | 2090
Cc1cccc(C2=Nc3nc(C)ccc3C(=O)C2)c1 [Compound 40, 2-(3'-Methylphenyl)-7-methyl-1,8-naphthyridin-4-one] | 32.4 | 138 | 17.8 | – | – | 120 | 97.7 | 126 | 427 | 60.3 | 490 | 26.9 | 200 | 31.6
Cc1cc(C)c2c(=O)cc(-c3cccc(Cl)c3)[nH]c2n1 [36'] | 13.2 | 27.5 | 224 | – | – | 170 | 347 | 117 | 204 | 47.9 | 170 | 74.1 | 295 | 19.1
COc1ccc(-c2cc(=O)c3cccnc3[nH]2)cc1 [Compound 51] | 20000 | 31600 | 26300 | – | – | 17800 | 38000 | 34700 | 56200 | 64600 | 30200 | 12900 | 53700 | 20900
Cc1cnc2c(c1)C(=O)CC(c1ccc3ccccc3c1)=N2 [Compound 49, 2-(β-Naphthyl)-6-methyl-1,8-naphthyridin-4-one] | 105 | 407 | 398 | – | – | 468 | 741 | 363 | 617 | 550 | 355 | 141 | 468 | 132
Cc1cccc(-c2cc(=O)c3cccnc3[nH]2)c1 [37'] | < 10 | 42.7 | 25.7 | – | – | 22.4 | 95.5 | 25.7 | 37.2 | 37.2 | 41.7 | 19.1 | 44.7 | < 10
Cc1ccc2c(n1)N=C(c1ccc3ccccc3c1)CC2=O [Compound 50, 2-(β-Naphthyl)-7-methyl-1,8-naphthyridin-4-one] | 1580 | 2630 | 3800 | – | – | 3980 | 4570 | 3310 | 5370 | 3800 | 3630 | 1780 | 4570 | 1950
Cc1cc(C)c2c(=O)cc(-c3ccc4ccccc4c3)[nH]c2n1 [Compound 51, 2-(β-Naphthyl)-5,7-methyl-1,8-naphthyridin-4-one] | 2950 | 5500 | 13200 | – | – | 12600 | 13500 | 2190 | 51300 | 14800 | 20000 | 3470 | 15800 | 3240
Cc1ccc(C2=Nc3ncc(C)cc3C(=O)C2)cc1 [Compound 68, 2-(4'-Methylphenyl)-6-methyl-1,8-naphthyridin-4-one] | – | – | – | 2400 ± 800 | – | – | – | – | – | – | – | – | – | –
Cc1cccc(-c2cc(=O)c3c(C)ccnc3[nH]2)c1 [38'] | < 10 | 33.1 | 36.3 | – | – | 46.8 | 57.5 | 33.9 | 53.7 | 30.2 | 22.4 | 18.2 | 53.7 | 11
Cc1cc(C)c2c(=O)cc(-c3cccc(F)c3)[nH]c2n1 [31'] | < 10 | 61.7 | 53.7 | – | – | < 10 | 85.1 | 37.2 | 35.5 | 33.1 | 18.2 | 37.2 | 64.6 | 12.9
COc1cccc(-c2cc(=O)c3c(C)ccnc3[nH]2)c1 [Compound 45] | < 10 | 26.3 | 47.9 | – | – | 44.7 | 58.9 | 22.4 | 51.3 | 28.8 | 25.7 | 12.9 | 58.9 | < 10
COc1cccc(-c2cc(=O)c3c(C)cc(C)nc3[nH]2)c1 [Compound 48] | < 10 | 309 | 447 | – | – | 407 | 646 | 288 | 437 | 417 | 251 | 174 | 170 | < 10
COc1ccccc1-c1cc(=O)c2cc(C)cnc2[nH]1 [Compound 41] | 3020 | 26900 | 32400 | – | – | 42700 | 31600 | 20400 | 41700 | 30900 | 19500 | 9550 | 27500 | 4470
Cc1ccnc2[nH]c(-c3cccc(Cl)c3)cc(=O)c12 [33'] | < 10 | 15500 | 38.9 | – | – | 15.8 | 158 | 41.7 | 33.1 | 40.7 | 31.6 | 10 | 52.5 | 11.7
